Experimental data reported in patent publication US20090215857A1 (Pfizer Products Inc., priority 2005, published 2009).
Structures can show the parent of a compound that is named as a salt.

Legend:
[1] = molecular target: T1, human norepinephrine transporter (Homo sapiens, UniProt P23975); test: hNET receptor binding ([125I]-RTI-55 radioligand); conditions: membranes of HEK-293 cells transfected with human norepinephrine transporter cDNA; 50 pM [125I]-RTI-55; IC50 converted by Cheng-Prusoff; read-out: NET Ki
T1 construct: expressed in transfected cells; host or cells: HEK-293
T1 sequence (P23975 whole entry): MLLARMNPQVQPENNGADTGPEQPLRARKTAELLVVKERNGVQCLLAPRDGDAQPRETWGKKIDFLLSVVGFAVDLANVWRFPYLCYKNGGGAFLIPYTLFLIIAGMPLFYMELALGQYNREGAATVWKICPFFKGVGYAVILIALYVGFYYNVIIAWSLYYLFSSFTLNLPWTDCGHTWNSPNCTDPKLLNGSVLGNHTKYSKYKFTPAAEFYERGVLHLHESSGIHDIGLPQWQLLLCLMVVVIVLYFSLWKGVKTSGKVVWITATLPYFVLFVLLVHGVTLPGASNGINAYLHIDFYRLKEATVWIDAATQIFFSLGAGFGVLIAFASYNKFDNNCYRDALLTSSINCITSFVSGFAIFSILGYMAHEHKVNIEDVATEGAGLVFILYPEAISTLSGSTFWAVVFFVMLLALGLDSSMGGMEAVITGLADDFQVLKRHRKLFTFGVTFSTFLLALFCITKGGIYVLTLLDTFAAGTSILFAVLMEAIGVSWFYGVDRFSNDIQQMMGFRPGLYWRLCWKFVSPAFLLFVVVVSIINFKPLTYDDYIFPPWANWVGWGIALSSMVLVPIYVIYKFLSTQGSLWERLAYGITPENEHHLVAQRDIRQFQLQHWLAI
Procedure, shortened: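 Membranes from HEK-293 cells expressing human NET were incubated 90 min at room temperature with 50 pM [125I]-RTI-55 and test compound (10^−5M to 10^−12M) in Krebs-HEPES, pH 7.4.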

[2] = molecular target: T2, human serotonin transporter (Homo sapiens, UniProt P31645); test: hSERT receptor binding ([125I]-RTI-55 radioligand); conditions: membranes of HEK-293 cells transfected with human serotonin transporter cDNA; 50 pM [125I]-RTI-55; IC50 converted by Cheng-Prusoff; read-out: SERT Ki
T2 construct: expressed in transfected cells; host or cells: HEK-293
T2 sequence (P31645 whole entry): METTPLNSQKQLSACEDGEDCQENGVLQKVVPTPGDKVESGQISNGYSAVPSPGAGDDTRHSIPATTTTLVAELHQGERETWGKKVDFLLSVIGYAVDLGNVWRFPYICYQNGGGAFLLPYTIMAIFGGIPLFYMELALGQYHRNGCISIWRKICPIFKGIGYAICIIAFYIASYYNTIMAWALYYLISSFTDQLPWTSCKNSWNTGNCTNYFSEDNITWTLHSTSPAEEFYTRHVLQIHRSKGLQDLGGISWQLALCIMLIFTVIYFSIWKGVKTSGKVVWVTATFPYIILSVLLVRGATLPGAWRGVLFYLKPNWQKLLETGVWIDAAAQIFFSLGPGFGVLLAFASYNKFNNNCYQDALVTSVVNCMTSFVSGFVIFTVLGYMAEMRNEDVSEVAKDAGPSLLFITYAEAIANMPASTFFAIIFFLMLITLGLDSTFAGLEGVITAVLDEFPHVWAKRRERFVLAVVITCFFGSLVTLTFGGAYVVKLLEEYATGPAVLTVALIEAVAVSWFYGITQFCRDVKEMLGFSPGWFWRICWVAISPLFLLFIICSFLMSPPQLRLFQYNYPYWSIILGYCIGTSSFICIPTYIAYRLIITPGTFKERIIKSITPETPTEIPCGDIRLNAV
Procedure, shortened: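 Ki values derive via Cheng-Prusoff from IC50s of displacement of 50 pM [125I]-RTI-55 binding to transfected HEK-293 membranes, 90 min at room temperature in pH 7.4 Krebs-HEPES buffer. Compounds spanned 10^−12 to 10^−5 M, in duplicate; nonspecific binding was set with 10 μM citalopram.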

Structure (SMILES)	Ki [1]	Ki [2]
Fc1cccc(-c2c(F)cccc2CO[C@H]2CCNC2)c1F [Example A-26, (S)-3-(6,2′,3′-Trifluoro-biphenyl-2-ylmethoxy)-pyrrolidine hydrochloride]	30.6 nM	622 nM
Fc1ccc(-c2cc(F)ccc2CO[C@H]2CCNC2)c(F)c1 [Example A-23, (S)-(5,2′,4′-Trifluoro-biphenyl-2-ylmethoxy)-pyrrolidine hydrochloride]	15.8 nM	102 nM
Oc1cccc(-c2ccc(F)cc2CO[C@H]2CCNC2)c1 [Example D-90, (S)-4′-Fluoro-2′-(pyrrolidin-3-yloxymethyl)-biphenyl-3-ol]	68.3 nM	516 nM
CS(=O)(=O)c1ccc(-c2ccc(F)cc2CO[C@H]2CCNC2)cc1 [Example D-102, (S)-3-(4-Fluoro-4′-methanesulfonyl-biphenyl-2-methoxy)-pyrrolidine]	≥ 10000 nM	≥ 10000 nM
COc1ccc(-c2ccccc2CO[C@H]2CCNC2)cc1C [Example A-10, (S)-3-(4′-Methoxy-3′-methyl-biphenyl-2-ylmethoxy)-pyrrolidine fumarate]	22.8 nM	116 nM
N#Cc1cccc(-c2ccc(F)cc2CO[C@H]2CCNC2)c1 [Example D-62, (S)-4′-Fluoro-2′-(pyrrolidin-3-yloxymethyl)-biphenyl-3-carbonitrile]	480 nM	319 nM
OCc1cccc(-c2ccccc2CO[C@H]2CCNC2)c1 [Example D-38, (S)-[2′-(Pyrrolidin-3-yloxymethyl)-biphenyl-3-yl]-methanol]	1190 nM	39.3 nM
Fc1ccc(-c2ccccc2CO[C@H]2CCNC2)cc1F [Example A-5, (S)-3-(3′-4′-Difluoro-biphenyl-2-ylmethyloxy)-pyrrolidine hydrochloride]	11.3 nM	12 nM
Fc1ccc(-c2ccccc2CO[C@@H]2CCNC2)cc1F [Example A-13, (R)-3-(3′,4′-Difluoro-biphenyl-2-ylmethoxy)-pyrrolidine fumarate]	66 nM	54 nM
Oc1ccc(-c2ccc(F)cc2CO[C@H]2CCNC2)cc1 [Example D-99, (S)-4′-Fluoro-2′-(pyrrolidine-3-yloxymethyl)-biphenyl-4-ol]	43.1 nM	659 nM
Fc1cccc(-c2ccccc2CO[C@H]2CCNC2)c1 [Example D-6, (S)-3-(3′-Fluoro-biphenyl-2-ylmethoxy)-pyrrolidine]	18.5 nM	18.4 nM
c1ccc(-c2ccc3c(c2)OCCCO3)c(CO[C@H]2CCNC2)c1 [Example D-50, (S)-3-[2-(3,4-Dihydro-2H-benzo[b][1,4]dioxepin-7-yl)-benzyloxy]-pyrrolidine]	4450 nM	709 nM
Cc1cc(F)ccc1-c1ccc(F)cc1CO[C@H]1CCNC1 [Example D-106, (S)-3-(4,4′-Difluoro-2′-methyl-biphenyl-2-ylmethoxy)-pyrrolidine]	121 nM	372 nM
c1ccc(-c2ccc3ccccc3c2)c(CO[C@H]2CCNC2)c1 [Example D-29, (S)-3-(2-Naphthalen-2-yl-benzyloxy)-pyrroldine]	314 nM	172 nM
Cc1ccc(C)c(-c2ccc(F)cc2CO[C@H]2CCNC2)c1 [Example D-89, (S)-3-(4-Fluoro-2′,5′-dimethyl-biphenyl-2-ylmethoxy)-pyrrolidine]	189 nM	268 nM
CC(=O)c1ccccc1-c1ccccc1CO[C@H]1CCNC1 [Example D-42, (S)-1-[2′-(Pyrrolidin-3-yloxymethyl)-biphenyl-2-yl]-ethanone]	2540 nM	≥ 10000 nM
Clc1ccccc1-c1ccccc1CO[C@H]1CCNC1 [Example D-19, (S)-3-(2′-Chloro-biphenyl-2-ylmethoxy)-pyrrolidine]	108 nM	346 nM
CC(=O)c1cccc(-c2ccc(F)cc2CO[C@H]2CCNC2)c1 [Example D-81, (S)-1-[4′-Fluoro-2′-(pyrrolidin-3-yloxymethyl)-biphenyl-3-yl]-ethanone]	1970 nM	371 nM
Fc1cccc(-c2cccc(F)c2CO[C@H]2CCNC2)c1F [Example A-33, (3S)-3-[(2′,3,3′-trifluorobiphenyl-2-yl)methoxy]pyrrolidine fumarate]	25.7 nM	99.7 nM
CC(C)Oc1ccc(-c2ccccc2CO[C@H]2CCNC2)cc1 [Example D-56, (S)-(4′-Isopropoxy-biphenyl-2-ylmethoxy)-pyrroldine]	≥ 10000 nM	658 nM
CCOc1ncccc1-c1ccccc1CO[C@H]1CCNC1 [Example D-120, (S)-2-Ethoxy-3-[2-(pyrrolidin-3-yloxymethyl)-phenyl]-pyridine]	571 nM	4230 nM
c1ccc(-c2cccc3ccccc23)c(CO[C@H]2CCNC2)c1 [Example D-15, (S)-3-(2-Naphthalen-1-yl-benzyloxy)-pyrrolidine]	55.4 nM	272 nM

Structure (SMILES)	Ki [1]	Ki [2]
COc1ccc(OC)c(-c2ccc(F)cc2CO[C@H]2CCNC2)c1 [Example D-68, (S)-3-(4-Fluoro-2′,5′-dimethoxy-biphenyl-2-ylmethoxy)-pyrrolidine]	1160 nM	1240 nM
c1ccc(-c2cnc3[nH]ccc3c2)c(CO[C@H]2CCNC2)c1 [Example D-124, (S)-5-[2-(Pyrrolidin-3-yloxymethyl)-phenyl]-1H-pyrrolo[2,3-b]pyridine]	7400 nM	2730 nM
Cc1cc(C)n(-c2cccc(-c3ccccc3CO[C@H]3CCNC3)c2)n1 [Example D-59, (S)-3,5-Dimethyl-1-[2′-(pyrrolidin-3-yloxymethyl)-biphenyl-3-yl]-1H-pyrazole]	≥ 10000 nM	57.8 nM
CC(C)Oc1ccccc1-c1ccccc1CO[C@H]1CCNC1 [Example A-19, (S)-3-(2′-Isopropoxy-biphenyl-2-ylmethoxy)-pyrrolidine fumarate]	111 nM	752 nM
COc1ccc(-c2ccccc2CO[C@H]2CCNC2)c(OC)c1 [Example D-54, (S)-3-(2′,4′-Dimethoxy-biphenyl-2-ylmethoxy)-pyrrolidine]	≥ 10000 nM	≥ 10000 nM
CCc1ccccc1-c1ccc(F)cc1CO[C@H]1CCNC1 [Example D-113, (S)-3-(2′-Ethyl-4-fluoro-biphenyl-2-ylmethoxy)-pyrrolidine]	1340 nM	1470 nM
CCOc1cccc(-c2ccc(F)cc2CO[C@H]2CCNC2)c1 [Example D-70, (S)-3-(3′-Ethoxy-4-fluoro-biphenyl-2-ylmethoxy)-pyrrolidine]	832 nM	195 nM
Fc1ccc(Cl)c(-c2ccccc2CO[C@H]2CCNC2)c1 [Example D-18, (S)-3-(2′-Chloro-5′-fluoro-biphenyl-2-ylmethoxy)-pyrrolidine]	102 nM	218 nM
COc1cc(-c2ccccc2CO[C@H]2CCNC2)cc(OC)c1OC [Example D-57, (S)-3-(3′,4′,5′-Trimethoxy-biphenyl-2-ylmethoxy)-pyrrolidine]	≥ 10000 nM	589 nM
Fc1ccc(F)c(-c2ccccc2CO[C@H]2CCNC2)c1 [Example D-8, (S)-3-(2′,5′-Difluoro-biphenyl-2-ylmethoxy)-pyrrolidine]	21.9 nM	208 nM
COc1ccc(F)cc1-c1ccccc1CO[C@H]1CCNC1 [Example A-22, fumarate]	≥ 10000 nM	136 nM
Clc1ncccc1-c1ccccc1CO[C@H]1CCNC1 [Example D-118, (S)-2-Chloro-3-[2-(pyrrolidin-3-yloxymethyl)-phenyl]-pyridine]	≥ 10000 nM	3560 nM
Cc1ccc(-c2ccc(F)cc2CO[C@H]2CCNC2)cc1C [Example D-104, (S)-3-(4-Fluoro-3′,4′-dimethyl-biphenyl-2-ylmethoxy)-pyrrolidine]	112 nM	220 nM
Fc1ccc(-c2ccccc2-c2ccccc2)c(CO[C@H]2CCNC2)c1 [Example D-101, (S)-3-(4″-Fluoro-[1,1′,2′,1″]terphenyl-2″-ylmethoxy)-pyrrolidine]	962 nM	3780 nM
Fc1ccccc1-c1cccc(F)c1CO[C@H]1CCNC1 [Example A-30, (3S)-3-[(2′,3-difluorobiphenyl-2-yl)methoxy]pyrrolidine fumarate]	80.1 nM	247 nM
Fc1ccc(-c2ccc(F)c(F)c2)c(CO[C@H]2CCNC2)c1 [Example D-71, (S)-(4,3′,4′-Trifluoro-biphenyl-2-ylmethoxy)-pyrrolidine]	60 nM	108 nM
Cc1ccc(-c2ccc(F)cc2CO[C@H]2CCNC2)cc1 [Example D-63, (S)-3-(4-Fluoro-4′-methyl-biphenyl-2-ylmethoxy)-pyrrolidine]	36.6 nM	423 nM
N#Cc1ccccc1-c1ccccc1CO[C@H]1CCNC1 [Example D-52]	≥ 10000 nM	≥ 10000 nM
CC(=O)c1cccc(-c2ccccc2CO[C@H]2CCNC2)c1 [Example D-41]	1280 nM	345 nM
Fc1ccc(CO[C@H]2CCNC2)c(-c2cccc(F)c2F)c1 [Example A-24, (S)-(5,2′,3′-Trifluoro-biphenyl-2-ylmethoxy)-pyrrolidine hydrochloride]	14.2 nM	232 nM
COc1ccc(-c2ccc(F)cc2CO[C@H]2CCNC2)c(OC)c1 [Example D-77, (S)-3-(4-Fluoro-2′,4′-dimethoxy-biphenyl-2-ylmethoxy)-pyrrolidine]	1350 nM	1400 nM
COc1ccc(-c2ccc(F)cc2CO[C@H]2CCNC2)cc1 [Example D-115, (S)-3-(4-Fluoro-4′-methoxy-biphenyl-2-ylmethoxy)-pyrrolidine]	674 nM	606 nM
